Key:
[1] = Stability assay in 1000-fold molar excess of EDTA solution (ITLC); type: physicochemical; settings: for transchelation in EDTA solution: 1000-fold molar excess of EDTA; for % intact starting species by incubation time: competitor EDTA 1000-fold excess, 37 °C, n = 3
Protocol: (§1) Determination of the stability of [^89Zr]DFO, [^89Zr]TAFC, and [^89Zr]FSC-RGD conjugates was carried out by incubating the radioligands in PBS, 1000-fold molar excess of EDTA solution with different pH (pH 7 and pH 6; radioligand vs EDTA: 25 μM vs 25 mM) as well as in human serum for 7 days at 37 °C, respectively. At selected time points three aliquots of PBS and EDTA solution were analyzed directly via ITLC, while the three serum aliquots were mixed with 500 μL of CH3CN, vortexed, and centrifuged at 20,000 rcf for 2 min prior to analysis.

[2] = Transchelation study with 1000-fold molar excess of TAFC or DFO (RP-HPLC); type: physicochemical
Protocol: [^89Zr]DFO and [^89Zr]TAFC (50 μL each) were mixed with a 1000-fold molar excess of either TAFC or DFO for 7 days at RT. At selected time points aliquots of the solutions were analyzed directly via RP-HPLC. ([^89Zr]DFO tR = 4.8 min; [^89Zr]TAFC tR = 5.9 min). The transchelation was determined by the ratio of [^89Zr]DFO and [^89Zr]TAFC. Three replicates were analyzed for each radioligand.

[3] = Stability assay in PBS and human serum; type: physicochemical; settings: period of 7 days, 37 °C; no demetalation was observed
Protocol: as §1

[4] = Distribution coefficient (logD), octanol/PBS; settings: pH 7.4
[5] = Protein binding assay in fresh human serum (size exclusion spin column); settings: 37 °C, incubation time 168 h

Compound: CC(=O)N(O)CCCCCNC(=O)CCC(=O)N(O)CCCCCNC(=O)CCC(=O)N(O)CCCCCN [[^89Zr]DFO, desferrioxamine B, metal not drawn, reference compound]
- transchelation in EDTA solution ([1]; pH 6, after 3 days): more than 90%
- transchelation in EDTA solution ([1]; pH 7, after 7 days, ITLC): ~60%
- % intact starting species by incubation time ([1]; pH 6, 1 h): 94.6 ± 0.4%
- % intact starting species by incubation time ([1]; pH 6, 4 h): 63.5 ± 3.6%
- % intact starting species by incubation time ([1]; pH 6, 1 d): 38.2 ± 8.4%
- % intact starting species by incubation time ([1]; pH 6, 3 d): 6.4 ± 2.0%
- % intact starting species by incubation time ([1]; pH 6, 5 d): 6.0 ± 1.8%
- % intact starting species by incubation time ([1]; pH 7, 1 h): 95.5 ± 0.5%
- % intact starting species by incubation time ([1]; pH 7, 4 h): 76.0 ± 1.0%
- % intact starting species by incubation time ([1]; pH 7, 1 d): 55.4 ± 3.2%
- % intact starting species by incubation time ([1]; pH 7, 3 d): 41.0 ± 5.2%
- % intact starting species by incubation time ([1]; pH 7, 5 d): 43.3 ± 2.5%
- % intact starting species by incubation time ([1]; pH 7, 7 d): 42.2 ± 2.3%
- % intact starting species by incubation time ([2]; competitor TAFC 1000-fold excess, pH 6, 1 h, RT, n = 3): 0.0 ± 0.0%
- fraction transchelated in 1000-fold molar excess of TAFC ([2]; within 1 h): 100%
- stability in PBS and human serum [3]: high stability
- logD [4]: -3
- protein binding (%) [5]: 8.7 ± 1.0%

From publication PMC4453016, “Novel Bifunctional Cyclic Chelator for ^89Zr Labeling–Radiolabeling and Targeting Properties of RGD Conjugates” (Molecular Pharmaceutics, 2015)
